From ChEMBL document CHEMBL3390832 (Medchemcomm, 2011) come the findings set out here.

For experiment [1], the target named is Glutamate NMDA receptor. The experiment in a line: Displacement of [3H]CGP-39653 from NMDA receptor in rat brain cortical membranes. It is filed as cell membranes.
For experiment [2], the target named is T1, Metabotropic glutamate receptor 7 (Homo sapiens, UniProt Q14831). The experiment in a line: Binding affinity to human mGluR7 receptor expressed in HEK cells. It is filed as cell-based, HEK293.
T1 sequence (Q14831 whole entry): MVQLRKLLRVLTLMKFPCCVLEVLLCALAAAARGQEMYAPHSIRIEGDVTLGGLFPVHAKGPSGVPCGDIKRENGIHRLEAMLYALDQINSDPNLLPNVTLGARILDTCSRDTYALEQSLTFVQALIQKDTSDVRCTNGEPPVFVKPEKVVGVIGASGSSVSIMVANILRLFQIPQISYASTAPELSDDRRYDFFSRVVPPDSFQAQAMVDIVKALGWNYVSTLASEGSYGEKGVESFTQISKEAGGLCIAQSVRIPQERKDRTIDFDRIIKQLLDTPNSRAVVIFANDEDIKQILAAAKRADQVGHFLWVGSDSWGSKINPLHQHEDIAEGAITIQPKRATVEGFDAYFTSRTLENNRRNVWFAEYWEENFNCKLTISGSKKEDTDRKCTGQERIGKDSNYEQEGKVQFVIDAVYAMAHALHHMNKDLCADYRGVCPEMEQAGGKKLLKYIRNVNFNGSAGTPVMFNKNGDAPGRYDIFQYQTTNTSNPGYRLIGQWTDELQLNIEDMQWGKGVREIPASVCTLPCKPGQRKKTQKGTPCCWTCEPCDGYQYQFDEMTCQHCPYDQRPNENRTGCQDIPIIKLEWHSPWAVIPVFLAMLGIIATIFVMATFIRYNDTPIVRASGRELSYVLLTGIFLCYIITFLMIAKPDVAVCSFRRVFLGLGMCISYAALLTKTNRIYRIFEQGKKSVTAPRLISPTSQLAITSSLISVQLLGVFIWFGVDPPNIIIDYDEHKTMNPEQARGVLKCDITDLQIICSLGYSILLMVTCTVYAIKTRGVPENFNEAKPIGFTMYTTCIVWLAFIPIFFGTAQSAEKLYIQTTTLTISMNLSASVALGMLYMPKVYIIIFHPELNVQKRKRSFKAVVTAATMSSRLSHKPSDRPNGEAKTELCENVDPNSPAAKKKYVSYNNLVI
The target in experiment [3] is T1, Metabotropic glutamate receptor 7. The experiment in a line: Agonist activity at human mGluR7 receptor expressed in HEK cells. It is filed as cell-based, HEK293.
The target of experiment [4] is T2, Metabotropic glutamate receptor 3 (Homo sapiens, UniProt Q14832). The experiment in a line: Binding affinity to human mGluR3 receptor expressed in HEK cells. The experiment is classed as cell-based, HEK293.
T2 sequence (Q14832 whole entry): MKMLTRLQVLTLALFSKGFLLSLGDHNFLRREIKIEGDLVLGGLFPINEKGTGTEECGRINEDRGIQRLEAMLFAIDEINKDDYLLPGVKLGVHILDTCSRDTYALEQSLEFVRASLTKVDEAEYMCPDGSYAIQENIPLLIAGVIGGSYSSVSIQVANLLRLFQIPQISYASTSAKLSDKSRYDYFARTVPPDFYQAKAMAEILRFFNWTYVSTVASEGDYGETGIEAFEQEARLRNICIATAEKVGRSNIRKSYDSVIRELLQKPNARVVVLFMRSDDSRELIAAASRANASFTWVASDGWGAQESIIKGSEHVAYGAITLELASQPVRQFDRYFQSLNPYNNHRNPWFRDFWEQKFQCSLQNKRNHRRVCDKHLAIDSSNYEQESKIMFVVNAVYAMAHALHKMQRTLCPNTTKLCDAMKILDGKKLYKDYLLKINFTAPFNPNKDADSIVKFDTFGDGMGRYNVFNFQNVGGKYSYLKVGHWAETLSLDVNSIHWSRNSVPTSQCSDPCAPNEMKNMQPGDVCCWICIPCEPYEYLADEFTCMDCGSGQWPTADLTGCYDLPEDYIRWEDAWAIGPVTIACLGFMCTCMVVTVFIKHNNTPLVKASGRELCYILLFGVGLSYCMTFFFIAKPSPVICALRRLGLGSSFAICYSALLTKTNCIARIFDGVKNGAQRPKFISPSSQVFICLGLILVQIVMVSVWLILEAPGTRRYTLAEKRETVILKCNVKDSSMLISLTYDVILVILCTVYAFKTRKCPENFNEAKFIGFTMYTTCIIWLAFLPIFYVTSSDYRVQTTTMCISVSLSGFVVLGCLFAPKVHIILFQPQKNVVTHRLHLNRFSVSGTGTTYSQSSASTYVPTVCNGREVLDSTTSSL
In experiment [5] the target is T2, Metabotropic glutamate receptor 3. The experiment in a line: Agonist activity at human mGluR3 receptor expressed in HEK cells. The experiment is classed as cell-based, HEK293.
Experiment [6] deals with T3, G-protein coupled receptor family C group 6 member A (Mus musculus, UniProt Q8K4Z6).
T3 sequence (Q8K4Z6 whole entry): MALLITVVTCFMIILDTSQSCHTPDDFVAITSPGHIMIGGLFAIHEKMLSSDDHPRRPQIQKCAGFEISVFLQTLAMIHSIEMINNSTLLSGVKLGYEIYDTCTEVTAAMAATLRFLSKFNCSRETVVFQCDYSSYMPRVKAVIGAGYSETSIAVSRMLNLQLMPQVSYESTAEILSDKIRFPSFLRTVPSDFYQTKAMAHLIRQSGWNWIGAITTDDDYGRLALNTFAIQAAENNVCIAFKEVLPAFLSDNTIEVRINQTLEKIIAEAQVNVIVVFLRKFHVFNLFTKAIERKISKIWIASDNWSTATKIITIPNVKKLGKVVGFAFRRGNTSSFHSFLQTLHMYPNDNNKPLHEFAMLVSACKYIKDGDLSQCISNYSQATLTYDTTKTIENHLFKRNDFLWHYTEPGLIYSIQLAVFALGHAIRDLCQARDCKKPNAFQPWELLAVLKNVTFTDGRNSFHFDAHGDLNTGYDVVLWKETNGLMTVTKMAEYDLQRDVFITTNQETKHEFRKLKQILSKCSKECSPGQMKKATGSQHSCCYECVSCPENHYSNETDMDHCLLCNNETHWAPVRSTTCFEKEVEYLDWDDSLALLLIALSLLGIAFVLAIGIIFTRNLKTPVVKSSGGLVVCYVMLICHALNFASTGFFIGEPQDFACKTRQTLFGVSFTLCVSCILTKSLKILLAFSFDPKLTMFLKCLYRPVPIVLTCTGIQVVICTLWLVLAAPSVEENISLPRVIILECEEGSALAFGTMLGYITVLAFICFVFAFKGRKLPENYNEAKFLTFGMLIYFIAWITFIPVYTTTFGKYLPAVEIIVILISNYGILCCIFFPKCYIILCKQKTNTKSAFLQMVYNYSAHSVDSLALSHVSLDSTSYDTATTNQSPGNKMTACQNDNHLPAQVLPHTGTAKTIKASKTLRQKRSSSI
In words: Agonist activity at mouse GPRC6A expressed in human tsA201 cells coexpressing GalphaqG66D after 30 mins by inositol phosphate turnover assay. The experiment is classed as functional, cell-based.

`N[C@]1(C(=O)O)C[C@H]1Cc1nsnc1O` (relative stereo): the Ki in experiment [1] worked out at 19 µM.
Turning to `N[C@@H](CCC(=O)O)C(=O)O` [GLUTAMIC ACID], the inhibitory constant (Ki) is 1170 µM in experiment [2] and 0.0575 µM in experiment [4]. Moreover, the EC50 amounted to 1180 µM in experiment [3] and 0.06 µM in experiment [5].
Regarding `N=C(N)NCCC[C@H](N)C(=O)O` [ARGININE], in experiment [6], the EC50 turned out to be 284 µM.
Take `N[C@@]1(C(=O)O)C[C@@H]1CC(=O)O` (relative stereo): the inhibition constant (Ki) in experiment [4] was 200 µM; in experiment [1], 77 µM. In experiment [5], the EC50 worked out at 200 µM.
In the case of `N[C@@]1(C(=O)O)C[C@H]1CC(=O)O` (relative stereo), the EC50 in experiment [5] is above 1000 µM. Besides, the Ki in experiment [1] is 72 µM.
In experiment [1], `N[C@@H](CCc1nsnc1O)C(=O)O` returned a Ki above 100 µM.
Still for that read-out and setting: next, `N[C@H](CCc1nsnc1O)C(=O)O`: above 100 µM.
